Structures are written as SMILES.

In one series the test system is A. brasiliensis. Description: Minimum inhibitory concentration (MIC) in Mueller-Hinton broth, pH 7.4. In kind it is cell-based, Aspergillus brasiliensis. On the set-up: Minimum inhibitory concentration: unit not given here. The conditions noted are these: for Minimum inhibitory concentration: Table 2. On the procedure:
(§1) This example illustrates the preparation of testing parameters for antimicrobial activity of components of the inventive composition and related compositions for comparison. […] Microbes were grown on Mueller-Hinton agar (MHA, Sigma-Aldrich, St. Louis, Mo.) for 7 days until heavy sporulation was present. Spores from two agar plates were captured in sterile phosphate-buffered saline (PBS) using a sterile swab. Spores were enumerated by serial dilution in Dey-Engley neutralizing broth (DEB; Sigma-Aldrich) and spread plating on MHA. A typical spore stock was determined to contain ˜2×10^7 spores/mL. Bacteria were grown in MH broth for 24 h at 37° C., enumerated by plating, and diluted to the desired concentration as indicated.
(§2) To assess the antimicrobial activity of hydroxamic acids and derivatives, the inhibitory properties of commercially available hydroxylamines and hydroxamic acids were compared to their alcohol and carboxylic acid analogues diluted in Mueller-Hinton broth at pH 7.4 (Table 1).

In series [1] the test system is Pseudomonas aeruginosa ATCC 9027. The series is described as follows: Bactericidal activity in ionic surfactant hand wash / foamy hand soap base formula (HW). In kind it is cell-based. The note with it: pH 7.0; for Day 3 Log Reduction / Day 10 Log Reduction: HW, 1 × 10^6 CFU/ml, 37° C.; for CFU/mL after 7 d contact time: hand soap formula. As for the experimental part: This example illustrates the preparation of testing parameters for antimicrobial activity of components of the inventive composition and related compositions for comparison. […] Mold were grown and minimum inhibitory tests performed as previously reported (see e.g., Buckley, H. L. et al. ACS Sustain. Chem. Eng. 5, 4320-4331, 2017). Microbes were grown on Mueller-Hinton agar (MHA, Sigma-Aldrich, St. Louis, Mo.) for 7 days until heavy sporulation was present. Spores from two agar plates were captured in sterile phosphate-buffered saline (PBS) using a sterile swab. Spores were enumerated by serial dilution in Dey-Engley neutralizing broth (DEB; Sigma-Aldrich) and spread plating on MHA. A typical spore stock was determined to contain ˜2×10^7 spores/mL. Bacteria were grown in MH broth for 24 h at 37° C., enumerated by plating, and diluted to the desired concentration as indicated.
To test the various compounds, a foamy hand soap base formula was made with sodium lauryl sulfate (SLS, 2.4% w/w; Sulfochem SLS-PHP [30% active], The Lubrizol Corporation, Wickliffe, Ohio) and cocoamidopropyl betaine (CAPB, 1.2% w/w; Mackam 35 [30% active], Solvay S.A, Brussels, Belgium) in deionized water and sterilized by filtration (0.22 μm, PVDF; VWR, Radnor, Pa.). All test formulas were adjusted to the desired pH using citric acid and/or NaOH. All tubes were inoculated with 250 μL of spore inoculum (described above) to a total volume of 5 mL, for a final spore concentration of ˜1×10^6 spores/mL in each tube. […] About 100 μL of each inoculated foamy hand soap mixture was diluted 1:10 in DEB and 100 μL of this dilution was spread plated on MHA at several time points (e.g. 3 d, 7 d, 13 d, 18 d, and 20 d). Plates were incubated at room temperature for 3-5 days for mold (1-2 days for bacteria) and colonies enumerated.

The test system of a further series is P. aeruginosa. Description: Minimum inhibitory concentration (MIC) in Mueller-Hinton broth, pH 7.4. The note with it: for Minimum inhibitory concentration: Table 2, ATCC 9027. More on the design: Minimum inhibitory concentration: unit not given here. In kind it is cell-based, Pseudomonas aeruginosa. As for the experimental part: as §1, §2
Guanylhydrazones 7 and 8, which represent a class of broad-spectrum antimicrobials, alone and in combination with hydroxamic acids were evaluated.

In series [2] the test system is Aspergillus brasiliensis ATCC 16404. The series is described as follows: Fungicidal activity in ionic surfactant hand wash / foamy hand soap base formula (HW). In kind it is cell-based. The conditions noted are these: pH 7.0; for Log reduction Week 1 / Log reduction Week 2: 1 × 10^6 CFU/mL, 25° C. On the procedure: as §1
All test formulas were adjusted to the desired pH using citric acid and/or NaOH. […] All tubes were kept at room temperature (˜21-22° C.) for 3 weeks. About 100 μL of each inoculated foamy hand soap mixture was diluted 1:10 in DEB and 100 μL of this dilution was spread plated on MHA at several time points (e.g. 3 d, 7 d, 13 d, 18 d, and 20 d). Plates were incubated at room temperature for 3-5 days for mold (1-2 days for bacteria) and colonies enumerated.
The preservative activity of a hydroxamic acid/guanylhydrazone combination was compared to other antimicrobial mixtures in an ionic surfactant-containing formula. […] The fungicidal properties of a mixture of benzhydroxamic acid and guanylhydrazone (1+7) was compared to commercial antimicrobials representing different functional classes (Table 3).

Series [3] is described as follows: Dissolution / compatibility in water (observation). The format is physicochemical. The conditions noted are these: sample preparation for extended preservative test. On the procedure:
Several aryl derivatives of benzhydroxamic acid were also tested.

For the next series, the system named is C. albicans. The series is described as follows: Minimum inhibitory concentration (MIC) in Mueller-Hinton broth, pH 7.4. In kind it is cell-based, Candida albicans. As for the experimental part:
as §1, §2

The next series concerns E. coli. The series is described as above. The format is cell-based, Escherichia coli. As for the experimental part:
as §1, §2

The test system of another series is S. aureus. Described as above. In kind it is cell-based, Staphylococcus aureus. On the procedure:
as §1, §2

For another series, the system named is P. aeruginosa ATCC 9027. The series is described as follows: Tile surface disinfectant test (adapted from ASTM E1153). In kind it is cell-based, Pseudomonas aeruginosa. The note with it: 200 ppm; 4×10^6 CFU/mL; sprayed ceramic tile. On the procedure:
Tile surface disinfectant tests. Surface sanitation tests were adapted from ASTM Test Method E1153. Test bacteria (Escherichia coli ATCC 15597 and Pseudomonas aeruginosa ATCC 9027; American Type Culture Collection, Manassas, Va.) were streaked from frozen stock culture onto Mueller-Hinton agar (MHA; Sigma-Aldrich, St Louis, Mo.) and incubated at 30-37° C. for 2-4 days to produce isolated colonies. Two to three representative colonies were picked and transferred to 10 mL Mueller-Hinton broth (MHB; Sigma) and incubated at 37° C. overnight. Cultures underwent a maximum of 3 passes to fresh broth before being incubated for 48 h at 37° C. to be used as the inoculum. Sterile, glazed 2×2-inch ceramic tiles were inoculated with 100 μL of 48 h culture and allowed to dry for <1 h. Spray sanitizer solutions were prepared by mixing the test compound (5) in deionized, filtered water. Benzalkonium chloride (≥95%, Sigma) or bleach solution was used as a positive control and deionized, filtered water was used as a negative control. Solutions were transferred to 250 mL spray bottles, previously checked for spray volume consistency. For each treatment, tiles were sprayed 3 times. At the designated contact time, 15 mL of Dey-Engley broth (DEB; Sigma) was poured onto the tiles. Tiles were briskly swirled 50 times with DEB to neutralize antimicrobial agents and recover bacteria. This procedure was followed in duplicate for each treatment and contact time. The sanitizer-DEB solutions were then serially diluted in phosphate-buffered saline and plated on MHA. MHA plates were incubated at 37° C. for 18-24 h and colonies enumerated. To determine log reduction, bacteria recovered from treated tiles were compared to bacteria recovered from 2-3 replicate inoculated, untreated tiles.

Where [4] appears, read: hand soap formula, 0.3 wt % 8 alone, minimum detection limit 5.0 × 10^1.
Where [5] appears, read: HW, substance alone 0.5%, high loading 10^7 CFU/mL.

`CCc1ccc(C(=O)NO)cc1` [4-ethylbenzhydroxamic acid 3, 4-ethylbenzhydroxamic acid] displayed a Minimum inhibitory concentration in the series with A. brasiliensis of 0.06. Moreover, in series [1] (substance alone 0.2%), the “Day 3 Log Reduction” value came to 1 Log and the “Day 10 Log Reduction” value was 0 Log. Further, in the series on P. aeruginosa, the Minimum inhibitory concentration is 0.5. Further, in series [2] (HW, 0.2 wt %), the “Log reduction Week 1” value is listed as 4 Log and the “Log reduction Week 2” value was 1 Log. Besides, in series [2] (HW, 0.5 wt %), the “Log reduction Week 1” value is recorded as 4 Log and the “Log reduction Week 2” value stood at 4 Log.

Regarding `Cc1ccc(C(=O)NO)cc1` [4-methylbenzhydroxamic acid 2, 4-methylbenzhydroxamic acid], the Minimum inhibitory concentration with A. brasiliensis is reported as 0.02. Also, in [1] (substance alone 0.2%), the “Day 3 Log Reduction” value worked out at 2 Log and the “Day 10 Log Reduction” value is listed as 4 Log. The Minimum inhibitory concentration in the series on P. aeruginosa stood at 0.3. Further, in [2] (HW, 0.2 wt %), the “Log reduction Week 1” value is listed as 4 Log and the “Log reduction Week 2” value turned out to be 4 Log.

With `CCCCc1ccc(C(=O)NO)cc1` [4-n-butylbenzhydroxamic acid 6, 4-n-butylbenzhydroxamic acid], the Minimum inhibitory concentration in the series with A. brasiliensis was 0.008. In series [1] (substance alone 0.4%), the “Day 3 Log Reduction” value worked out at 0 Log and the “Day 10 Log Reduction” value is 0 Log. For the same compound, the Minimum inhibitory concentration in the series with P. aeruginosa came to 0.1. Besides, in [2] (HW, 0.4 wt %), the “Log reduction Week 1” value is 4 Log and the “Log reduction Week 2” value is “none”.

For `CCCCCCCCc1ccc(C=NNC(=N)N)cc1` [4-n-octylbenzaldehyde guanylhydrazone 8, 4-n-octylbenzaldehyde guanylhydrazone], in the series with A. brasiliensis, the Minimum inhibitory concentration was 0.002. For the same compound, in series [1] (0.2 wt % 8 alone), the “CFU/mL after 7 d contact time” value is given as >2 × 10^4 CFU/mL. The compatibility in water entry in series [3] is listed as “not compatible in water”. Also, the “CFU/mL after 7 d contact time” value in [2] (hand soap formula, 0.2 wt % 8 alone) is given as >2 × 10^4 CFU/mL. For the same compound, in series [2] (setting [4]), the “CFU/mL, incubation time 3 d” value is on record as >2.5 × 10^4 CFU/mL; the “CFU/mL, incubation time 7 d” value is >2.5 × 10^4 CFU/mL; the “CFU/mL, incubation time 13 d” value was >2.5 × 10^4 CFU/mL; the “CFU/mL, incubation time 18 d” value is on record as >2.5 × 10^4 CFU/mL. In addition, the “CFU/mL, incubation time 20 d” value in series [2] (setting [4]) is given as >2.5 × 10^4 CFU/mL.

In the case of `O=C(NO)c1ccccc1` [Benzhydroxamic acid 1, Benzhydroxamic acid], the MIC is recorded as 0.03 wt % in the series with C. albicans; 0.02 wt % against A. brasiliensis; 0.5 wt % against E. coli; 0.06 wt % against S. aureus; 0.1 wt % with P. aeruginosa. In addition, the Minimum inhibitory concentration in the series with A. brasiliensis is 0.02; with P. aeruginosa it was 0.1. The “CFU/mL after 7 d contact time” value in [1] (0.4% 1 alone) is 2 × 10^4 CFU/mL; in series [2] (hand soap formula, 0.4% 1 alone) it was 1 × 10^3 CFU/mL. In addition, in series [2] (HW, 0.5 wt %), the “Log reduction Week 1” value was found to be 1 Log. Besides, the “Log reduction Week 2 (day 12)” value in [2] (HW, 0.5 wt %, day 12) came to 4 Log. For the same compound, the “Log Reduction Day 5” value in series [2] (setting [5]) is 1 Log. The “Log Reduction Day 12” value in series [2] (setting [5]) was determined as 4 Log.

Regarding `CCON.Cl` [O-ethylhydroxylamine HCl], the MIC against C. albicans turned out to be 0.2 wt %; against A. brasiliensis, 0.1 wt %; in the series on E. coli, 0.1 wt %; with S. aureus, 0.1 wt %; in the series with P. aeruginosa, 0.1 wt %.

Turning to `CON.Cl` [O-methylhydroxylamine HCl], the MIC is recorded as 0.5 wt % against C. albicans; 0.1 wt % against A. brasiliensis; 0.2 wt % in the series with E. coli; 0.06 wt % in the series on S. aureus; 0.1 wt % with P. aeruginosa.

As to `Cl.NOc1ccccc1` [O-phenylhydroxylamine HCl], the MIC with C. albicans is reported as 0.1 wt %; against A. brasiliensis, 0.06 wt %; in the series with E. coli, 0.3 wt %; against S. aureus, above 0.5 wt %; with P. aeruginosa, 0.2 wt %.

Regarding `CC(C)(C)ON.Cl` [O-tert-butylhydroxylamine HCl], the MIC is reported as 0.5 wt % with C. albicans; 0.5 wt % against A. brasiliensis; 0.5 wt % in the series with E. coli; 0.1 wt % with S. aureus; 0.2 wt % in the series with P. aeruginosa.

With `Oc1ccccc1` [Phenol], the MIC against C. albicans is 0.2 wt %; against A. brasiliensis, 0.1 wt %; with E. coli, above 0.5 wt %; against S. aureus it was 0.2 wt %; in the series with P. aeruginosa it was 0.2 wt %.

For `O=C(O)c1ccccc1O` [Salicylic acid], the MIC in the series on C. albicans was determined as 0.5 wt %; in the series with A. brasiliensis, 0.5 wt %; against E. coli it was 0.2 wt %; with S. aureus, 0.1 wt %; in the series with P. aeruginosa it was 0.2 wt %.

On to `O=C(CCCCCCC(=O)NO)NO` [Suberohydroxamic acid], for which the MIC was 0.5 wt % against C. albicans; 0.5 wt % against A. brasiliensis; above 0.5 wt % with E. coli; 0.5 wt % against S. aureus; 0.5 wt % in the series on P. aeruginosa.

Consider `OCl` [sodium hypochlorite], for which, in the series with P. aeruginosa ATCC 9027, the “reduction at 15 seconds” value is recorded as 97.44%, the “reduction at 5 min” value is recorded as above 99.998% and the “reduction at 10 min” value is on record as above 99.998%.

Regarding `CC(C)(C)O` [t-Butanol], the MIC in the series with C. albicans is 0.5 wt %; in the series on A. brasiliensis, above 0.5 wt %; with E. coli, above 0.5 wt %; in the series on S. aureus it was 5 wt %; with P. aeruginosa, 20 wt %.
